System: plasma SPM concentrations in mice
Assay: MTX given intravenously to mice, plasma SPM by LC-MS/MS lipid mediator profiling
Format: in vivo
Conditions: blood after 1 hour; for plasma 4S,14S-diHDHA concentration in mice, Mean ± SEM / plasma 5S,15S-diHETE concentration in mice, Mean ± SEM / plasma 7S,14S-diHDHA concentration in mice, Mean ± SEM / plasma 7S,14S-diHDPA concentration in mice, Mean ± SEM / plasma 10S,17S-diHDPA concentration in mice, Mean ± SEM / plasma 13,14-dehydro-15-oxo-LXA4 concentration in mice, Mean ± SEM / plasma 14-oxo-MaR1 concentration in mice, Mean ± SEM / plasma 15-oxo-LXA4 concentration in mice, Mean ± SEM / plasma 15R-LXA4 concentration in mice, Mean ± SEM / plasma 15R-LXB4 concentration in mice, Mean ± SEM / plasma 17R-PD1 concentration in mice, Mean ± SEM / plasma 17R-RvD1 concentration in mice, Mean ± SEM / plasma 17R-RvD3 concentration in mice, Mean ± SEM / plasma 22-OH-MaR1 concentration in mice, Mean ± SEM / plasma 22-OH-PD1 concentration in mice, Mean ± SEM / plasma LXA4 concentration in mice, Mean ± SEM / plasma LXB4 concentration in mice, Mean ± SEM / plasma MaR1 concentration in mice, Mean ± SEM / plasma MaR1n-3 DPA concentration in mice, Mean ± SEM / plasma MaR2 concentration in mice, Mean ± SEM / plasma PD1 concentration in mice, Mean ± SEM / plasma PD1n-3 DPA concentration in mice, Mean ± SEM / plasma PDx concentration in mice, Mean ± SEM / plasma RvD1 concentration in mice, Mean ± SEM / plasma RvD1n-3 DPA concentration in mice, Mean ± SEM / plasma RvD2 concentration in mice, Mean ± SEM / plasma RvD2n-3 DPA concentration in mice, Mean ± SEM / plasma RvD3 concentration in mice, Mean ± SEM / plasma RvD4 concentration in mice, Mean ± SEM / plasma RvD5 concentration in mice, Mean ± SEM / plasma RvD5n-3 DPA concentration in mice, Mean ± SEM / plasma RvD6 concentration in mice, Mean ± SEM / plasma RvE1 concentration in mice, Mean ± SEM / plasma RvE2 concentration in mice, Mean ± SEM / plasma RvE3 concentration in mice, Mean ± SEM / plasma RvT1 concentration in mice, Mean ± SEM / plasma RvT2 concentration in mice, Mean ± SEM / plasma RvT3 concentration in mice, Mean ± SEM / plasma RvT4 concentration in mice, Mean ± SEM: intravenous injection
Procedure: Plasma was obtained by centrifugation and peripheral blood SPM concentrations were determined using LC-MS/MS based lipid mediator profiling. (A) OPLS-DA analysis of plasma SPM concentrations. Colored spherical areas display 95% confidence region of respective incubations. […] Results for A, B are representative of n=6 donors from three distinct experiments. […] Blood was then collected after 1 hour and SPM concentrations were determined using LC-MS/MS based lipid mediator profiling (D) oPLS-DA analysis of plasma SPM concentrations. Colored areas display 95% confidence region of respective incubations. […] Results are representative of n=4 mice per group and experiments were conducted on two distinct occasions.
Plasma was obtained from peripheral blood of healthy volunteers, patients and mouse following centrifugation at 1500×g for 10 min at room temperature. Paws were collected and immediately transferred to liquid nitrogen prior to homogenization in 1 ml ice cold MeOH and homogenized using a glass dounce. All samples for LC-MS/MS-based profiling were extracted using solid-phase extraction columns as in Walker, M. E., Souza, P. R., Colas, R. A. & Dalli, J. “13-Series resolvins mediate the leukocyte-platelet actions of atorvastatin and pravastatin in inflammatory arthritis.” FASEB J 31, 3636-3648 (2017), the contents of which are incorporated herein by reference. Prior to sample extraction, deuterated internal standards, representing each region in the chromatographic analysis (500 pg each) were added to facilitate quantification. Samples were kept at −20° C. for a minimum of 45 min to allow protein precipitation. Supernatants were subjected to solid phase extraction, methyl formate fraction collected, brought to dryness and suspended in phase (methanol/water, 1:1, vol/vol) for injection on a Shimadzu LC-20AD HPLC and a Shimadzu SIL-20AC autoinjector, paired with a QTrap 5500 or QTrap 6500 plus (Sciex). An Agilent Poroshell 120 EC-C18 column (100 mm×4.6 mm×2.7 μm) was kept at 50° C. and mediators eluted using a mobile phase consisting of methanol/water/acetic acid of 20:80:0.01 (vol/vol/vol) that was ramped to 50:50:0.01 (vol/vol/vol) over 0.5 min and then to 80:20:0.01 (vol/vol/vol) from 2 min to 11 min, maintained till 14.5 min and then rapidly ramped to 98:2:0.01 (vol/vol/vol) for the next 0.1 min. This was subsequently maintained at 98:2:0.01 (vol/vol/vol) for 5.4 min, and the flow rate was maintained at 0.5 ml/min. QTrap 5500 or QTrap 6500 plus were operated using a multiple reaction monitoring method as in Walker, M. E., Souza, P. R., Colas, R. A. & Dalli, J. “13-Series resolvins mediate the leukocyte-platelet actions of atorvastatin and pravastatin in inflammatory arthritis.” FASEB J 31, 3636-3648 (2017), the contents of which are incorporated herein by reference. Each lipid mediator was identified using established criteria including matching retention time to synthetic or authentic standards and at least 6 diagnostic ions (Walker, M. E., Souza, P. R., Colas, R. A. & Dalli, J. “13-Series resolvins mediate the leukocyte-platelet actions of atorvastatin and pravastatin in inflammatory arthritis.” FASEB J 31, 3636-3648 (2017), the contents of which are incorporated herein by reference).

[1] = mice, MTX 1 μg/mouse or 22 μg/mouse intravenous

CN(Cc1cnc2nc(N)nc(N)c2n1)c1ccc(C(=O)N[C@@H](CCC(=O)O)C(=O)O)cc1 [MTX, Methotrexate]
plasma 4S,14S-diHDHA concentration in mice, Mean ± SEM (1 μg/mouse): 18.38 ± 6.59
plasma 5S,15S-diHETE concentration in mice, Mean ± SEM (1 μg/mouse): 14.61 ± 6.53
plasma 7S,14S-diHDHA concentration in mice, Mean ± SEM (1 μg/mouse): 0.00 ± 0.00
plasma 7S,14S-diHDPA concentration in mice, Mean ± SEM (1 μg/mouse): 0.00 ± 0.00
plasma 10S,17S-diHDPA concentration in mice, Mean ± SEM (1 μg/mouse): 2.41 ± 0.97
plasma 13,14-dehydro-15-oxo-LXA4 concentration in mice, Mean ± SEM (1 μg/mouse): 0.65 ± 0.21
plasma 14-oxo-MaR1 concentration in mice, Mean ± SEM (1 μg/mouse): 3.44 ± 0.37
plasma 15-oxo-LXA4 concentration in mice, Mean ± SEM (1 μg/mouse): 3.53 ± 1.62
plasma 15R-LXA4 concentration in mice, Mean ± SEM (1 μg/mouse): 6.41 ± 0.78
plasma 15R-LXB4 concentration in mice, Mean ± SEM (1 μg/mouse): 3.90 ± 1.80
plasma 17R-PD1 concentration in mice, Mean ± SEM (1 μg/mouse): 10.50 ± 4.91
plasma 17R-RvD1 concentration in mice, Mean ± SEM (1 μg/mouse): 0.00 ± 0.00
plasma 17R-RvD3 concentration in mice, Mean ± SEM (1 μg/mouse): 4.26 ± 0.87
plasma 22-OH-MaR1 concentration in mice, Mean ± SEM (1 μg/mouse): 0.00 ± 0.00
plasma 22-OH-PD1 concentration in mice, Mean ± SEM (1 μg/mouse): 0.00 ± 0.00
plasma LXA4 concentration in mice, Mean ± SEM (1 μg/mouse): 1.06 ± 0.20
plasma LXB4 concentration in mice, Mean ± SEM (1 μg/mouse): 16.93 ± 1.92
plasma MaR1 concentration in mice, Mean ± SEM (1 μg/mouse): 71.74 ± 20.71
plasma MaR1n-3 DPA concentration in mice, Mean ± SEM (1 μg/mouse): 0.83 ± 0.34
plasma MaR2 concentration in mice, Mean ± SEM (1 μg/mouse): 2.05 ± 0.39
plasma PD1 concentration in mice, Mean ± SEM (1 μg/mouse): 10.13 ± 4.31
plasma PD1n-3 DPA concentration in mice, Mean ± SEM (1 μg/mouse): 0.00 ± 0.00
plasma PDx concentration in mice, Mean ± SEM (1 μg/mouse): 17.23 ± 1.32
plasma RvD1 concentration in mice, Mean ± SEM (1 μg/mouse): 1.39 ± 0.59
plasma RvD1n-3 DPA concentration in mice, Mean ± SEM (1 μg/mouse): 0.67 ± 0.35
plasma RvD2 concentration in mice, Mean ± SEM (1 μg/mouse): 2.60 ± 1.05
plasma RvD2n-3 DPA concentration in mice, Mean ± SEM (1 μg/mouse): 4.54 ± 1.98
plasma RvD3 concentration in mice, Mean ± SEM (1 μg/mouse): 1.30 ± 0.56
plasma RvD4 concentration in mice, Mean ± SEM (1 μg/mouse): 3.70 ± 0.70
plasma RvD5 concentration in mice, Mean ± SEM (1 μg/mouse): 1.64 ± 0.67
plasma RvD5n-3 DPA concentration in mice, Mean ± SEM (1 μg/mouse): 4.02 ± 0.79
plasma RvD6 concentration in mice, Mean ± SEM (1 μg/mouse): 1.72 ± 0.72
plasma RvE1 concentration in mice, Mean ± SEM (1 μg/mouse): 0.54 ± 0.25
plasma RvE2 concentration in mice, Mean ± SEM (1 μg/mouse): 1.70 ± 0.52
plasma RvE3 concentration in mice, Mean ± SEM (1 μg/mouse): 6.22 ± 1.39
plasma RvT1 concentration in mice, Mean ± SEM (1 μg/mouse): 10.18 ± 2.01
plasma RvT2 concentration in mice, Mean ± SEM (1 μg/mouse): 0.00 ± 0.00
plasma RvT3 concentration in mice, Mean ± SEM (1 μg/mouse): 0.63 ± 0.28
plasma RvT4 concentration in mice, Mean ± SEM (1 μg/mouse): 1.40 ± 0.64
plasma 4S,14S-diHDHA concentration in mice, Mean ± SEM (22 μg/mouse): 1.43 ± 0.64
plasma 5S,15S-diHETE concentration in mice, Mean ± SEM (22 μg/mouse): 12.65 ± 5.37
plasma 7S,14S-diHDHA concentration in mice, Mean ± SEM (22 μg/mouse): 22.10 ± 8.55
plasma 7S,14S-diHDPA concentration in mice, Mean ± SEM (22 μg/mouse): 0.64 ± 0.55
plasma 10S,17S-diHDPA concentration in mice, Mean ± SEM (22 μg/mouse): 0.52 ± 0.45
plasma 13,14-dehydro-15-oxo-LXA4 concentration in mice, Mean ± SEM (22 μg/mouse): 0.20 ± 0.15
plasma 14-oxo-MaR1 concentration in mice, Mean ± SEM (22 μg/mouse): 0.81 ± 0.41
plasma 15-oxo-LXA4 concentration in mice, Mean ± SEM (22 μg/mouse): 3.93 ± 1.01
plasma 15R-LXA4 concentration in mice, Mean ± SEM (22 μg/mouse): 6.20 ± 1.44
plasma 15R-LXB4 concentration in mice, Mean ± SEM (22 μg/mouse): 2.17 ± 0.89
plasma 17R-PD1 concentration in mice, Mean ± SEM (22 μg/mouse): 1.41 ± 0.61
plasma 17R-RvD1 concentration in mice, Mean ± SEM (22 μg/mouse): 0.26 ± 0.30
plasma 17R-RvD3 concentration in mice, Mean ± SEM (22 μg/mouse): 0.67 ± 0.65
plasma 22-OH-MaR1 concentration in mice, Mean ± SEM (22 μg/mouse): 0.00 ± 0.00
plasma 22-OH-PD1 concentration in mice, Mean ± SEM (22 μg/mouse): 0.00 ± 0.00
plasma LXA4 concentration in mice, Mean ± SEM (22 μg/mouse): 0.56 ± 0.15
plasma LXB4 concentration in mice, Mean ± SEM (22 μg/mouse): 12.72 ± 1.68
plasma MaR1 concentration in mice, Mean ± SEM (22 μg/mouse): 37.97 ± 11.63
plasma MaR1n-3 DPA concentration in mice, Mean ± SEM (22 μg/mouse): 0.00 ± 0.00
plasma MaR2 concentration in mice, Mean ± SEM (22 μg/mouse): 1.28 ± 0.72
plasma PD1 concentration in mice, Mean ± SEM (22 μg/mouse): 9.99 ± 2.47
plasma PD1n-3 DPA concentration in mice, Mean ± SEM (22 μg/mouse): 0.28 ± 0.24
plasma PDx concentration in mice, Mean ± SEM (22 μg/mouse): 10.36 ± 2.79
plasma RvD1 concentration in mice, Mean ± SEM (22 μg/mouse): 0.14 ± 0.12
plasma RvD1n-3 DPA concentration in mice, Mean ± SEM (22 μg/mouse): 0.33 ± 0.48
plasma RvD2 concentration in mice, Mean ± SEM (22 μg/mouse): 2.99 ± 0.66
plasma RvD2n-3 DPA concentration in mice, Mean ± SEM (22 μg/mouse): 3.72 ± 3.41
plasma RvD3 concentration in mice, Mean ± SEM (22 μg/mouse): 0.18 ± 0.66
plasma RvD4 concentration in mice, Mean ± SEM (22 μg/mouse): 3.88 ± 0.55
plasma RvD5 concentration in mice, Mean ± SEM (22 μg/mouse): 0.00 ± 0.00
plasma RvD5n-3 DPA concentration in mice, Mean ± SEM (22 μg/mouse): 0.00 ± 0.00
plasma RvD6 concentration in mice, Mean ± SEM (22 μg/mouse): 0.00 ± 0.00
plasma RvE1 concentration in mice, Mean ± SEM (22 μg/mouse): 0.00 ± 0.00
plasma RvE2 concentration in mice, Mean ± SEM (22 μg/mouse): 0.96 ± 0.22
plasma RvE3 concentration in mice, Mean ± SEM (22 μg/mouse): 0.77 ± 0.64
plasma RvT1 concentration in mice, Mean ± SEM (22 μg/mouse): 9.49 ± 5.15
plasma RvT2 concentration in mice, Mean ± SEM (22 μg/mouse): 0.00 ± 0.00
plasma RvT3 concentration in mice, Mean ± SEM (22 μg/mouse): 0.87 ± 0.48
plasma RvT4 concentration in mice, Mean ± SEM (22 μg/mouse): 2.07 ± 1.16
ALOX15-derived SPM including RvT1, RvT4 and RvD5n-3 DPA [1]: upregulation
peripheral blood SPM profile [1]: dose-dependent shift
